The source of these data is patent US8343990B2, “Substituted cyclopropyl compounds, compositions containing such compounds and methods of treatment” (Merck Sharp & Dohme Corp., priority 2008, dated 2013).

Where a name gives a salt, the structure may show the parent alone.

The experiment addresses T1, GPR119 receptor (UniProt Q8TDV5, S309L, species not given).
T1 sequence (Q8TDV5 1-335 S309L): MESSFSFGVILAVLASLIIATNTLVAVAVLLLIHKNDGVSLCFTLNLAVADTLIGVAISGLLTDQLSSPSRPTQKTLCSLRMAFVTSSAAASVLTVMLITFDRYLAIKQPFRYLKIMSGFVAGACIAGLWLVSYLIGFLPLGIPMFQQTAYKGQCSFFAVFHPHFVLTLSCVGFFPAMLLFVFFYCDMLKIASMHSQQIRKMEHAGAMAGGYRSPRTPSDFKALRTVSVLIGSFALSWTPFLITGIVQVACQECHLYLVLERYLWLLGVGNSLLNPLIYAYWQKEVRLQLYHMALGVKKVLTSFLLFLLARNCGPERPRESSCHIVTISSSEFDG
The experiment is described as follows: GPR119 signaling, cyclic AMP (cAMP) homogenous time resolved fluorescence (HTRF) assay. The format is cell-based. The conditions noted are these: CHO cells with Gα15 and murine GPR119, or HEK293 Flp-In cells with human GPR119 S309L; table does not say which; read-out: Activity: inflection points, denoted as EC50 values (agonist activation of GPR119, cAMP). An excerpt: Measurement of GPR119 Signaling Using a Cyclic AMP (cAMP) Homogenous Time Resolved Fluorescence (HTRF) Assay
Chinese hamster ovary (CHO) cell lines stably transfected with the permissive guanine nucleotide binding protein alpha 15 (Gα15) and […] GPR119 were maintained in DMEM media containing FBS, penicillin-streptomycin, puromycin, and G418 (geneticin). Alternatively, human embryonic kidney (HEK)293 Flp-In cells (Invitrogen, Carlsbad, Calif.) were stably transfected with a human SNP variant (S309L) of GPR119 and maintained in DMEM media containing FBS, penicillin-streptomycin, and hygromycin. Agonist activation of the GPR119 receptor was measured in receptor transfected cells described above, treated with compounds of this invention, using a commercial homogenous time resolved fluorescence (HTRF) kit for measurement of cAMP (CisBio, Bedford, Mass.). The assay was performed in 96-well half-volume plates (murine) or 384-well plates (human) following the manufacturers instructions. Briefly, suspended cells were incubated with a dose titration of test compound at room temperature for 60 min, lysed, and incubated with HTRF reagents for an additional 60 min. The plate was read using an Envision multilabel reader (Perkin Elmer) adjusted to read time resolved fluorescence and the cAMP concentrations were extrapolated from a cAMP calibration curve. […] The concentration of test compound required to stimulate a half-maximal response (EC50), and efficacy as compared to an internal agonist control, was determined from a sigmoidal 4-parameter curve fit of the resulting plot of normalized activity versus compound concentration.
In general terms: Time-resolved FRET reads energy transfer from a long-lived donor to a nearby acceptor.

In general, EC50 refers to the concentration that produces a half-maximal response. In the case of `Cc1nnc(-c2ccc(OCC[C@H]3C[C@H]3C3CCN(c4ncc(Cl)cc4Cl)CC3)cc2F)o1` (racemic) [Ex 88, Rac-cis-3,5-dichloro-2-[4-(2-{2-[3-fluoro-4-(5-methyl-1,3,4-oxadiazol-2-yl)phenoxy]ethyl}cyclopropyl)piperidin-1-yl]pyridine], the EC50 is greater than 200 nM.

Take `Cc1nnc(-c2ccc(OCC[C@H]3C[C@H]3C3CCN(c4ccc(C(F)(F)F)cn4)CC3)cc2F)o1` (racemic) [Ex 89, Rac-cis-2-[4-(2-{2-[3-fluoro-4-(5-methyl-1,3,4-oxadiazol-2-yl)phenoxy]ethyl}cyclopropyl)piperidin-1-yl]-5-(trifluoromethyl)pyridinium trifluoroacetate]: the EC50 was less than 10 nM.

For `CS(=O)(=O)c1ccc(OCC[C@@H]2C[C@H]2C2CCN(c3ncc(Cl)cn3)CC2)cc1` (racemic) [Ex 90, rac-trans-5-chloro-2-[4-(2-{2-[4-(methylsulfonyl)phenoxy]ethyl}cyclopropyl)piperidin-1-yl]pyrimidine], the EC50 is 10 to 50 nM. To `Clc1cnc(N2CCC(C3CC3CCOc3ccncc3)CC2)nc1` (racemic) [Ex 92, rac-trans-5-chloro-2-(4-{2-[2-(pyridin-4-yloxy)ethyl]cyclopropyl}piperidin-1-yl)pyrimidine] belongs 50 to 200 nM. In the case of `Clc1cnc(N2CCC(C3CC3CCOc3ccncc3)CC2)nc1` (racemic) [Ex 98, rac-trans-5-chloro-2-(4-{2-[2-(pyridin-4-yloxy)ethyl]cyclopropyl}piperidin-1-yl)pyrimidine], the EC50 fell in the range of 50 to 200 nM. For the compound `Cc1cc(OCC[C@@H]2C[C@H]2C2CCN(c3ncc(Cl)cn3)CC2)nc(C#N)n1` (racemic) [Ex 99, rac-trans-4-{2-{2-[1-(5-chloropyrimidin-2-yl)piperidin-4-yl]cyclopropyl}ethoxy)-6-methylpyrimidine-2-carbonitrile], the EC50 lay within 10 to 50 nM. On to `Cc1nc(C#N)cc(OCCC2CC2C2CCN(c3ncc(Cl)cn3)CC2)n1` (racemic) [Ex 100, rac trans 6-(2-{2-[1-(5-chloropyrimidin-2-yl)piperidin-4-yl]cyclopropyl}ethoxy)-2-methylpyrimidine-4-carbonitrile], for which the EC50 fell in the range of 10 to 50 nM. As to `CS(=O)(=O)c1ccc(OC[C@@H]2C[C@H]2CC2CCN(c3ncc(Cl)cn3)CC2)cc1` (racemic) [Ex 101, rac-trans-5-chloro-2-{4-[(2-{[4-(methylsulfonyl)phenoxy]methyl}cyclopropyl)methyl]piperidin-1-yl}pyrimidine], the EC50 lay in the range of 50 to 200 nM. Turning to `N#Cc1ccc(OC[C@@H]2C[C@H]2CC2CCN(c3ncc(Cl)cn3)CC2)cc1F` (racemic) [Ex 104, Rac-trans-4-[(2-{[1-(5-chloropyrimidin-2-yl)piperidin-4-yl]methyl}cyclopropyl)methoxy]-2-fluorobenzonitrile], the EC50 is 50 to 200 nM.

On to `O=C(NC1CC1)c1ccc(OC[C@@H]2C[C@H]2CC2CCN(c3ncc(Cl)cn3)CC2)cc1F` (racemic) [Ex 106, Rac-trans 4-[(2-{[1-(5-chloropyrimidin-2-yl)piperidin-4-yl]methyl}cyclopropyl)methoxy]-N-cyclopropyl-2-fluorobenzamide], for which the EC50 was less than 10 nM. For the compound `Fc1cc(OC[C@@H]2C[C@H]2CC2CCN(c3ncc(Cl)cn3)CC2)ccc1-c1nnc(C2CC2)o1` (racemic) [Ex 111, rac-trans 5-chloro-2-{4-[(2-{[4-(5-cyclopropyl-1,3,4-oxadiazol-2-yl)-3-fluorophenoxy]methyl}cyclopropyl)methyl]piperidin-1-yl}pyrimidine], the EC50 was 10 to 50 nM.

Consider `Cc1nc(C#N)cc(OC[C@@H]2C[C@H]2CC2CCN(c3ncc(Cl)cn3)CC2)n1` (racemic) [Ex 113, rac-trans-6-[(2-{[1-(5-chloropyrimidin-2-yl)piperidin-4-yl]methyl}cyclopropyl)methoxy]-2-methylpyrimidine-4-carbonitrile], for which the EC50 fell in the range of 50 to 200 nM. As to `Cc1cc(OC[C@@H]2C[C@H]2CC2CCN(c3ncc(Cl)cn3)CC2)nc(C#N)n1` (racemic) [Ex 114, rac-trans-4-[(2-{[1-(5-chloropyrimidin-2-yl)piperidin-4-yl]methyl}cyclopropyl)methoxy]-6-methylpyrimidine-2-carbonitrile], the EC50 fell in the range of 50 to 200 nM. With `N#Cc1ccc(OCC2CC2CC2CCN(c3ncc(Cl)cn3)CC2)c(F)c1` (racemic) [Ex 115, rac-trans-4-[((1S,2S)-2-{[1-(5-chloropyrimidin-2-yl)piperidin-4-yl)methyl}cyclopropyl)methoxy]-3-fluorobenzonitrile], the EC50 fell in the range of 10 to 50 nM. For `CS(=O)(=O)c1ccc(OC[C@H]2C[C@H]2CC2CCN(c3ncc(Cl)cn3)CC2)cc1` (racemic) [Ex 116, rac-cis-5-chloro-2-{-4-[(2-{[4-(methylsulfonyl)phenoxy]methyl}cyclopropyl)methyl]piperidin-1-yl}pyrimidine], the EC50 is greater than 200 nM. On to `O=C(NC1CC1)c1ccc(OC[C@@H]2C[C@@H]2CC2CCN(c3ncc(Cl)cn3)CC2)cc1F` (racemic) [Ex 117, rac-cis 4-[(2-{[1-(5-chloropyrimidin-2-yl)piperidin-4-yl]methyl}cyclopropyl)methoxy]-N-cyclopropyl-2-fluorobenzamide], for which the EC50 was 10 to 50 nM. As to `Cc1cc(OC[C@@H]2C[C@@H]2CC2CCN(c3ncc(Cl)cn3)CC2)nc(C#N)n1` (racemic) [Ex 118, rac-cis-4-[(2-{[1-(5-chloropyrimidin-2-yl)piperidin-4-yl]methyl}cyclopropyl)methoxy]-6-methylpyrimidine-2-carbonitrile], the 50% effective concentration (EC50) is 10 to 50 nM. In the case of `N#Cc1ccc(OC[C@@H]2C[C@@H]2CC2CCN(c3ncc(Cl)cn3)CC2)cc1F` (racemic) [Ex 119, rac-cis 4-[(2-{[1-(5-chloropyrimidin-2-yl)piperidin-4-yl]methyl}cyclopropyl)methoxy]-2-fluorobenzonitrile], the EC50 was greater than 200 nM. As to `C[S+]([O-])c1ccc(OCCC2CC2C2CCN(c3ncc(Cl)cn3)CC2)cc1` (single isomer, unassigned) [Ex 33, Chiral-cis-5-chloro-2-[4-(2-{2-[4-(methylsulfinyl)phenoxy]ethyl}cyclopropyl)piperidin-1-yl]pyrimidine], the EC50 was less than 10 nM. As to `Cc1nc(C#N)cc(OCCC2CC2C2CCN(c3ncc(Cl)cn3)CC2)n1` (single isomer, unassigned) [Ex 34, Chiral-cis-6-(2-{2-[1-(5-chloropyrimidin-2-yl)piperidin-4-yl]cyclopropyl}ethoxy)-2-methylpyrimidine-4-carbonitrile], the EC50 was less than 10 nM. As to `Cc1cnc(N2CCC(C3CC3CCOc3cc(C#N)nc(C)n3)CC2)nc1` (single isomer, unassigned) [Ex 39, Chiral-cis-2-methyl-6-(2-{2-[1-(5-methylpyrimidin-2-yl)piperidin-4-yl]cyclopropyl}ethoxy)pyrimidine-4-carbonitrile], the concentration for a half-maximal effect (EC50) is less than 10 nM. With `Clc1cnc(N2CCC(C3CC3CCOc3ccc(-n4ccnn4)cn3)CC2)nc1` (single isomer, unassigned) [Ex 55a, Chiral cis-5-chloro-2-{4-[2-(2-{[5-(1H-1,2,3-triazol-1-yl)pyridin-2-yl]oxy}ethyl)cyclopropyl]piperidin-1-yl}pyrimidine], the EC50 is less than 10 nM.

With `Cc1nnc(-c2ccc(OCCC3CC3C3CCN(c4ncc(Cl)cn4)CC3)cc2F)o1` (single isomer, unassigned) [Ex 83 F, cis-5-chloro-2-[4-(2-{2-[3-fluoro-4-(5-methyl-1,3,4-oxadiazol-2-yl)phenoxy]ethyl}cyclopropyl)piperidin-1-yl]pyrimidine], the EC50 is less than 10 nM. As for `Cc1nnc(-c2ccc(OCCC3CC3C3CCN(c4ncc(Cl)cn4)CC3)cc2F)o1` (single isomer, unassigned) [Ex 83 S, cis-5-chloro-2-[4-(2-{2-[3-fluoro-4-(5-methyl-1,3,4-oxadiazol-2-yl)phenoxy]ethyl}cyclopropyl)piperidin-1-yl]pyrimidine], the EC50 was less than 10 nM. Regarding `Clc1cnc(N2CCC([C@@H]3C[C@@H]3CCOc3ccc(-n4ccnn4)cc3)CC2)nc1` (single isomer, unassigned) [Ex 83aS, cis-5-chloro-2-[4-(2-{2-[4-(1H-1,2,3-triazol-1-yl)phenoxy]ethyl}cyclopropyl)piperidin-1-yl]pyrimidine], the half-maximal effective concentration (EC50) was less than 10 nM.

Turning to `Fc1cnc(N2CCC(C3CC3CCOc3ccc(-n4ccnn4)cc3)CC2)nc1` (single isomer, unassigned) [Ex 83bF, cis-5-fluoro-2-[4-(2-{2-[4-(1H-1,2,3-triazol-1-yl)phenoxy]ethyl}cyclopropyl)piperidin-1-yl]pyrimidine], the EC50 lay in the range of 50 to 200 nM.
